Experimental findings from patent publication US12679878B2, “CRF2 receptor agonists and their use in therapy” (SANOFI, priority 2020, dated 2026) are described below.

The EC50 is the concentration needed to bring the measured effect to its halfway point. For orientation: Emax means the maximal effect, on the per cent scale that the assay sets.

Like-named read-outs stand apart in the source and are kept apart here. Starred links: 1 amine or outer side, 2 acyl side, 3 side chain; linkers in the order of their positions; H or OH if unused. Non-standard residues stand in square brackets, D forms with d. Residues, ends and D or L forms follow the SMILES beside them. Groups on a side chain read outwards from the residue. *: point of attachment. C18 diacid = O=C(O)CCCCCCCCCCCCCCCCC(=O)*; γGlu = O=C(O)[C@H](CCC(=O)[*:2])N[*:1]; AEEA = NCCOCCOCC(=O)O; Aib = CC(C)(N)C(=O)O A value given as a limit tells only on which side of the number the result lay.

For experiment [1], the target named is T1, CRF1R receptor (Homo sapiens, UniProt P34998).
T1 construct: host or cells: CHO-K1 clone 2
T1 sequence (P34998 24-415): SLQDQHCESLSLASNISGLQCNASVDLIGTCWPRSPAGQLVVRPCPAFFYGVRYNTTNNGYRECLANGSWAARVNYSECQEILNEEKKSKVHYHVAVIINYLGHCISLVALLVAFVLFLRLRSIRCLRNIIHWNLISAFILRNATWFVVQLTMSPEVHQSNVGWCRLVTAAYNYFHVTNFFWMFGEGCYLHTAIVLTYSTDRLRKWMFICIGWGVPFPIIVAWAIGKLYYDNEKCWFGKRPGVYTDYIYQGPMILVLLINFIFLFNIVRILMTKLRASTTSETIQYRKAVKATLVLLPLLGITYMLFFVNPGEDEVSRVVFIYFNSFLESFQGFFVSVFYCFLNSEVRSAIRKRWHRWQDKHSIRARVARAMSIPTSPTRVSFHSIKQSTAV
Kind of experiment: cAMP activity at anti-target CRF1R, CHO-K1 cell line clone 2 (Example 19.10). It is filed as cell-based. Conditions: CRF1R CHO-K1 clone 2; for EC50: 0% HSA, read-out: EC50 [nM] 0% HSA; for Emax: 100% = Sauvagine at 100 nM. The essentials:
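The cAMP read-out used the same protocol as the previous assay, except that Sauvagine at 100 nM set the 100% activation control. Cells were CHO-K1 clone 2 overexpressing CRF1R, cultured in F12 medium with 10% FBS and G418 and stored frozen until use.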

For experiment [2], the target named is T2, human CRF2α receptor (Homo sapiens, UniProt Q13324).
T2 construct: expressed in transfected cells; host or cells: TeloHEAC
T2 sequence (Q13324 1-411): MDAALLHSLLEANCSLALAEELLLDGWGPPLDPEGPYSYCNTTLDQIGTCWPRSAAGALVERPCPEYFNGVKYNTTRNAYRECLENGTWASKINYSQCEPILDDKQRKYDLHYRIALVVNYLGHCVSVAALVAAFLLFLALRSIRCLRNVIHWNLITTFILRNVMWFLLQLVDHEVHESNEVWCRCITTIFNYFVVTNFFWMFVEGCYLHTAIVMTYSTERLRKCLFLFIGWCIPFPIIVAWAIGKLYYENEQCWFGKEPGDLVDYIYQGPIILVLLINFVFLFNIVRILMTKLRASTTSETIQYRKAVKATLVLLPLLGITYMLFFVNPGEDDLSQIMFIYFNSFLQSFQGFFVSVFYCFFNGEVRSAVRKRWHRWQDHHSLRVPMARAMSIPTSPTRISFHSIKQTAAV
Briefly: cAMP agonism at human CRF2 α receptor in TeloHEAC cells (Example 7). The class given is cell-based. The note with it: cAMP HTRF, TeloHEAC cells stably expressing human CRF2 α. The essentials:
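Cryopreserved cells are thawed, washed and resuspended in IBMX-containing (2 mM) HEPES-buffered HBSS with or without 0.1% HSA. Compound incubation runs 30 min at room temperature with 2000 cells per well, then cAMP is measured by time-resolved FRET. Potency is expressed as EC50, efficacy relative to urocortin 2 at 1000 nM.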

[3] abbreviates: 0% HSA, read-out: EC50 [nM], 0% HSA.
Where [4] appears, read: 0.1% HSA, read-out: EC50 [nM], 0.1% HSA.

For `CC[C@H](C)[C@H](N)C(=O)N[C@H](C(=O)N[C@@H](CC(C)C)C(=O)N[C@@H](CO)C(=O)N[C@@H](CC(C)C)C(=O)N[C@@H](CC(=O)O)C(=O)N[C@H](C(=O)N1CCC[C@H]1C(=O)N[C@H](C(=O)N[C@@H](CCCCN)C(=O)N[C@@H](CC(C)C)C(=O)N[C@@H](CCCCNC(=O)COCCOCCNC(=O)COCCOCCNC(=O)CC[C@H](NC(=O)CCCCCCCCCCCCCCCCC(=O)O)C(=O)O)C(=O)N[C@@H](CCC(N)=O)C(=O)N[C@H](C(=O)N[C@@H](CC(C)C)C(=O)N[C@@H](CC(C)C)C(=O)N[C@@H](CCCCN)C(=O)N[C@@H](CCC(N)=O)C(=O)N[C@@H](CCC(=O)O)C(=O)N[C@@H](CCCNC(=N)N)C(=O)N[C@@H](CCC(N)=O)C(=O)N[C@@H](CCCCN)C(=O)N[C@@H](CCCCN)C(=O)N[C@@H](CCC(N)=O)C(=O)N[C@@H](CCCNC(=N)N)C(=O)N[C@@H](CCC(N)=O)C(=O)N[C@@H](CCC(N)=O)C(=O)N[C@@H](C)C(=O)N[C@@H](CCC(=O)O)C(=O)N[C@@H](CCCCN)C(=O)N[C@@H](CC(N)=O)C(=O)N[C@@H](CCCCN)C(=O)N[C@@H](CCC(N)=O)C(=O)N[C@H](C(=O)N[C@@H](CC(C)C)C(=O)N[C@@H](C)C(=O)N[C@@H](CCC(N)=O)C(=O)N[C@H](C(N)=O)C(C)C)[C@@H](C)CC)[C@@H](C)CC)[C@@H](C)CC)C(C)C)C(C)C` [compound 122] (H-IVLSLDVPIKLK([AEEA-AEEA-γGlu-C18 diacid])QILLKQERQKKQRQQAEKNKQILAQV-NH2; N-terminus assumed), the EC50 in experiment [1] is over 100 nM; in experiment [2] (setting [3]) it was 0.04 nM; in experiment [2] (setting [4]) it was 1.71 nM. The Emax in experiment [1] is 6.9%.
As for `CC[C@H](C)[C@H](N)C(=O)N[C@H](C(=O)N[C@@H](CC(C)C)C(=O)N[C@@H](CO)C(=O)N[C@@H](CC(C)C)C(=O)N[C@@H](CC(=O)O)C(=O)N[C@H](C(=O)N1CCC[C@H]1C(=O)N[C@H](C(=O)N[C@@H](CCCCN)C(=O)N[C@@H](CC(C)C)C(=O)N[C@@H](CCCCNC(=O)COCCOCCNC(=O)COCCOCCNC(=O)CC[C@H](NC(=O)CCCCCCCCCCCCCCCCC(=O)O)C(=O)O)C(=O)N[C@@H](CCC(N)=O)C(=O)N[C@H](C(=O)N[C@@H](CC(C)C)C(=O)N[C@@H](CC(C)C)C(=O)N[C@@H](CCC(=O)O)C(=O)N[C@@H](CCC(N)=O)C(=O)N[C@@H](C)C(=O)N[C@@H](CCCNC(=N)N)C(=O)N[C@@H](CCC(N)=O)C(=O)N[C@@H](CCCCN)C(=O)NC(C)(C)C(=O)N[C@@H](CCC(N)=O)C(=O)N[C@@H](CCCNC(=N)N)C(=O)N[C@@H](C)C(=O)N[C@@H](CCC(N)=O)C(=O)N[C@@H](C)C(=O)N[C@@H](CCC(=O)O)C(=O)N[C@@H](CCCCN)C(=O)N[C@@H](CC(N)=O)C(=O)N[C@@H](CCCCN)C(=O)N[C@@H](CCCNC(=N)N)C(=O)N[C@H](C(=O)N[C@@H](CC(C)C)C(=O)N[C@@H](CCC(=O)O)C(=O)N[C@@H](CCCNC(=N)N)C(=O)N[C@H](C(N)=O)C(C)C)[C@@H](C)CC)[C@@H](C)CC)[C@@H](C)CC)C(C)C)C(C)C` [compound 123] (H-IVLSLDVPIKLK([AEEA-AEEA-γGlu-C18 diacid])QILLEQARQK[Aib]QRAQAEKNKRILERV-NH2; N-terminus assumed), the EC50 in experiment [1] was over 100 nM; in experiment [2] (setting [3]), 0.33 nM; in experiment [2] (setting [4]), 9.74 nM. For the same compound, in experiment [1], the Emax stood at 9%.
The like results for `CC[C@H](C)[C@H](N)C(=O)N[C@H](C(=O)N[C@@H](CC(C)C)C(=O)N[C@@H](CO)C(=O)N[C@@H](CC(C)C)C(=O)N[C@@H](CC(=O)O)C(=O)N[C@H](C(=O)N1CCC[C@H]1C(=O)N[C@H](C(=O)N[C@@H](CCCCN)C(=O)N[C@@H](CC(C)C)C(=O)N[C@@H](CCCCNC(=O)COCCOCCNC(=O)COCCOCCNC(=O)CC[C@H](NC(=O)CCCCCCCCCCCCCCCCC(=O)O)C(=O)O)C(=O)N[C@@H](CCC(N)=O)C(=O)N[C@H](C(=O)N[C@@H](CC(C)C)C(=O)N[C@@H](CC(C)C)C(=O)N[C@@H](CCCCN)C(=O)N[C@@H](CCC(N)=O)C(=O)N[C@@H](C)C(=O)N[C@@H](CCCNC(=N)N)C(=O)N[C@@H](CCC(N)=O)C(=O)N[C@@H](CCCCN)C(=O)NC(C)(C)C(=O)N[C@@H](CCC(N)=O)C(=O)N[C@@H](CCCNC(=N)N)C(=O)N[C@@H](C)C(=O)N[C@@H](CCC(N)=O)C(=O)N[C@@H](C)C(=O)N[C@@H](CCC(=O)O)C(=O)N[C@@H](CCCCN)C(=O)N[C@@H](CC(N)=O)C(=O)N[C@@H](CCCCN)C(=O)N[C@@H](CCCNC(=N)N)C(=O)N[C@H](C(=O)N[C@@H](CC(C)C)C(=O)N[C@@H](CCC(=O)O)C(=O)N[C@@H](CCCNC(=N)N)C(=O)N[C@H](C(N)=O)C(C)C)[C@@H](C)CC)[C@@H](C)CC)[C@@H](C)CC)C(C)C)C(C)C` [compound 124] (H-IVLSLDVPIKLK([AEEA-AEEA-γGlu-C18 diacid])QILLKQARQK[Aib]QRAQAEKNKRILERV-NH2; N-terminus assumed) were, in that order, over 100 nM, 0.11 nM, 4.37 nM and -2.5%.
The like results for `CC[C@H](C)[C@H](N)C(=O)N[C@H](C(=O)N[C@@H](CC(C)C)C(=O)N[C@@H](CO)C(=O)N[C@@H](CC(C)C)C(=O)N[C@@H](CC(=O)O)C(=O)N[C@H](C(=O)N1CCC[C@H]1C(=O)N[C@H](C(=O)N[C@@H](CCCCN)C(=O)N[C@@H](CC(C)C)C(=O)N[C@@H](CCCCNC(=O)COCCOCCNC(=O)COCCOCCNC(=O)CC[C@H](NC(=O)CCCCCCCCCCCCCCCCC(=O)O)C(=O)O)C(=O)N[C@@H](CCC(N)=O)C(=O)N[C@H](C(=O)N[C@@H](CC(C)C)C(=O)N[C@@H](CC(C)C)C(=O)N[C@@H](CCC(=O)O)C(=O)N[C@@H](CCC(N)=O)C(=O)N[C@@H](C)C(=O)N[C@@H](CCCNC(=N)N)C(=O)N[C@@H](CCC(N)=O)C(=O)N[C@@H](CCCCN)C(=O)NC(C)(C)C(=O)N[C@@H](CCC(N)=O)C(=O)N[C@@H](CCCNC(=N)N)C(=O)N[C@@H](CCC(=O)O)C(=O)N[C@@H](CCC(N)=O)C(=O)N[C@@H](C)C(=O)N[C@@H](CCC(=O)O)C(=O)N[C@@H](CCCCN)C(=O)N[C@@H](CC(N)=O)C(=O)N[C@@H](CCCCN)C(=O)N[C@@H](CCCNC(=N)N)C(=O)N[C@H](C(=O)N[C@@H](CC(C)C)C(=O)N[C@@H](CCC(=O)O)C(=O)N[C@@H](CCCNC(=N)N)C(=O)N[C@H](C(N)=O)C(C)C)[C@@H](C)CC)[C@@H](C)CC)[C@@H](C)CC)C(C)C)C(C)C` [compound 125] (H-IVLSLDVPIKLK([AEEA-AEEA-γGlu-C18 diacid])QILLEQARQK[Aib]QREQAEKNKRILERV-NH2; N-terminus assumed) were, in that order, over 100 nM, 0.47 nM, 19.9 nM and 17.7%.
